Experimental data reported in PubChem BioAssay (NCI).
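Exposure lasted 48 hours, with cells grown in 96-well plates and compounds tested at five concentrations. TGI: total growth inhibition.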

Experiments:
Assay in all cases: NCI tumour cell line growth inhibition, 48 h
[1] = tested on: SK-OV-3 ovarian
[2] = tested on: SF-268 CNS
[3] = tested on: BT-549 breast
[4] = tested on: OVCAR-4 ovarian
[5] = tested on: A498 renal
[6] = tested on: SF-295 CNS
[7] = tested on: HCT-116 colon
[8] = tested on: T-47D breast
[9] = tested on: RXF-631 renal
[10] = tested on: HOP-18 NSCLC
[11] = tested on: SNB-78 CNS
[12] = tested on: XF 498 CNS
[13] = tested on: LXFL 529 NSCLC

O=C(O)CC[P+](c1ccccc1)(c1ccccc1)c1ccccc1
TGI [1]: > 100 µM
TGI [2]: > 100 µM
TGI [3]: 81.8 µM
TGI [4]: > 100 µM
TGI [5]: > 100 µM
TGI [6]: > 100 µM
TGI [7]: > 100 µM
TGI [8]: > 100 µM

N/C(=N\NS(=O)(=O)c1ccccc1)Oc1ccc(Br)cc1Br
TGI [9]: > 100 µM
TGI [10]: > 100 µM
TGI [1]: > 100 µM
TGI [2]: > 100 µM
TGI [11]: > 100 µM
TGI [4]: > 100 µM
TGI [5]: > 100 µM
TGI [6]: > 100 µM
TGI [7]: > 100 µM
TGI [12]: > 100 µM
TGI [13]: > 100 µM

Cc1cccc2c1c1ccc3c(c1n2C)C(=O)C=CC3=O
TGI [9]: 49.6 µM
TGI [10]: 23.9 µM
TGI [1]: 37.3 µM
TGI [2]: 36.5 µM
TGI [11]: 53.5 µM
TGI [4]: 24.3 µM
TGI [5]: 44.5 µM
TGI [6]: 30.9 µM
TGI [7]: 15.1 µM
TGI [13]: 4.22 µM

Cc1ccc(S(=O)(=O)[C@@H](Cl)[C@H]2N=C(Cl)NN=C2c2ccccc2)cc1
TGI [1]: > 100 µM
TGI [2]: 38.8 µM
TGI [3]: 59 µM
TGI [4]: 36.6 µM
TGI [5]: 35.7 µM
TGI [6]: > 100 µM
TGI [7]: > 100 µM
TGI [8]: > 100 µM

O=c1c2ccccc2nc(-c2ccccc2)n1NC(=S)Nc1ccc(Cl)cc1
TGI [10]: > 100 µM
TGI [1]: > 100 µM
TGI [2]: > 100 µM
TGI [4]: > 100 µM
TGI [5]: > 100 µM
TGI [6]: > 100 µM
TGI [7]: > 100 µM
TGI [13]: > 100 µM

C#CCNC(=O)ON1C(=O)CCC1=O
TGI [9]: > 100 µM
TGI [10]: > 100 µM
TGI [1]: > 100 µM
TGI [2]: > 100 µM
TGI [11]: > 100 µM
TGI [4]: > 100 µM
TGI [5]: > 100 µM
TGI [6]: > 100 µM
TGI [7]: > 100 µM
TGI [13]: > 100 µM

CO[C@H]1O[C@@H]2CO[C@@H](c3ccccc3)O[C@H]2[C@@H]2C/C=C\CCC[C@@]12O
TGI [1]: 99.7 µM
TGI [2]: 43.3 µM
TGI [3]: 43.8 µM
TGI [4]: > 100 µM
TGI [5]: 29 µM
TGI [6]: 42 µM
TGI [7]: 30.9 µM
TGI [8]: > 100 µM

Cc1cc(NC(=O)C2C3C=CC(O3)C2C(=O)O)no1 (centres undefined)
TGI [9]: > 100 µM
TGI [10]: > 100 µM
TGI [1]: > 100 µM
TGI [2]: 51.9 µM
TGI [11]: > 100 µM
TGI [4]: > 100 µM
TGI [5]: > 100 µM
TGI [6]: > 100 µM
TGI [7]: 32 µM
TGI [12]: > 100 µM
TGI [13]: 46.6 µM

CNc1ccc2ncccc2c1[N+](=O)[O-]
TGI [9]: > 100 µM
TGI [10]: > 100 µM
TGI [2]: > 100 µM
TGI [11]: > 100 µM
TGI [4]: > 100 µM
TGI [5]: > 100 µM
TGI [6]: > 100 µM
TGI [7]: > 100 µM
TGI [12]: > 100 µM
TGI [13]: > 100 µM

CCSCN(C)c1nc(N(C)C)nc(N(C)C)n1
TGI [10]: > 100 µM
TGI [1]: > 100 µM
TGI [2]: > 100 µM
TGI [11]: > 100 µM
TGI [4]: > 100 µM
TGI [5]: > 100 µM
TGI [6]: > 100 µM
TGI [7]: > 100 µM
TGI [13]: > 100 µM

CC(C)(O)C1CC[C@]2(C)[C@H]3CC[C@@H]4[C@@]5(C)CCCC(C)(C)[C@@H]5CC[C@@]4(C)[C@]3(C)CC[C@@H]12 (some centres undefined)
TGI [1]: > 100 µM
TGI [2]: > 100 µM
TGI [3]: > 100 µM
TGI [4]: > 100 µM
TGI [5]: > 100 µM
TGI [6]: > 100 µM
TGI [7]: > 100 µM
TGI [8]: > 100 µM

COc1cccc(/C(Cl)=C(\C=O)c2cccc(OC)c2)c1
TGI [10]: 41.9 µM
TGI [1]: 41.7 µM
TGI [2]: 21.2 µM
TGI [11]: 30 µM
TGI [4]: 55.3 µM
TGI [5]: 36.3 µM
TGI [6]: 35.6 µM
TGI [7]: 15 µM
TGI [12]: 27.1 µM
TGI [13]: 20.9 µM

NC(Cc1c[nH]c2cc([N+](=O)[O-])ccc12)C(=O)O (centres undefined)
TGI [1]: > 100 µM
TGI [2]: > 100 µM
TGI [3]: > 100 µM
TGI [4]: > 100 µM
TGI [5]: > 100 µM
TGI [6]: > 100 µM
TGI [7]: > 100 µM
TGI [8]: > 100 µM

COC(=O)c1c(CC(Cc2ccc3c(c2)CCCC3)C(=O)OC)ccc2c1CCCC2 (centres undefined)
TGI [1]: > 100 µM
TGI [2]: > 100 µM
TGI [3]: > 100 µM
TGI [4]: 45.1 µM
TGI [5]: > 100 µM
TGI [6]: > 100 µM
TGI [7]: > 100 µM
TGI [8]: > 100 µM

CC(=O)OC1C2CCC3C(C)(O)C4CC(O)C(C)(C)C4(O)C(O)CC13CC2(C)O (centres undefined)
TGI [1]: > 100 µM
TGI [2]: > 100 µM
TGI [3]: > 100 µM
TGI [4]: > 100 µM
TGI [5]: > 100 µM
TGI [6]: > 100 µM
TGI [7]: > 100 µM
TGI [8]: > 100 µM

CN(C)/C=N\c1ccnc(=O)[nH]1
TGI [9]: > 100 µM
TGI [10]: > 100 µM
TGI [1]: > 100 µM
TGI [2]: > 100 µM
TGI [11]: > 100 µM
TGI [4]: > 100 µM
TGI [5]: > 100 µM
TGI [6]: > 100 µM
TGI [7]: > 100 µM
TGI [12]: > 100 µM
TGI [13]: > 100 µM

C[N+](C)(C)C=Nc1cccc2c1CCCC2
TGI [1]: > 100 µM
TGI [2]: > 100 µM
TGI [3]: > 100 µM
TGI [4]: > 100 µM
TGI [5]: > 100 µM
TGI [6]: > 100 µM
TGI [7]: > 100 µM
TGI [8]: > 100 µM

CS[C@]12[C@@H]3C(=O)N(C)C(=O)[C@@H]3[C@](C)(C(=O)N1C)C(=O)N2c1ccccc1
TGI [1]: > 100 µM
TGI [2]: > 100 µM
TGI [3]: > 100 µM
TGI [4]: > 100 µM
TGI [5]: > 100 µM
TGI [6]: > 100 µM
TGI [7]: > 100 µM
TGI [8]: > 100 µM

O=C1C[C@@H]2[C@@H](CCC23CC3)N1
TGI [10]: > 100 µM
TGI [1]: > 100 µM
TGI [2]: > 100 µM
TGI [11]: > 100 µM
TGI [4]: > 100 µM
TGI [5]: > 100 µM
TGI [6]: > 100 µM
TGI [7]: > 100 µM
TGI [13]: > 100 µM

O=S(=O)(c1ccc(-c2nnc(-c3ccc(F)cc3)o2)cc1)c1ccc(-c2nnc(-c3ccc(F)cc3)o2)cc1
TGI [1]: 90.3 µM
TGI [2]: > 100 µM
TGI [3]: > 100 µM
TGI [4]: > 100 µM
TGI [5]: 58.6 µM
TGI [6]: > 100 µM
TGI [7]: > 100 µM
TGI [8]: > 100 µM
